These results are taken from paper PMC6287599, “2,6-Bis(2-Benzimidazolyl)Pyridine (BBP) Is a Potent and Selective Inhibitor of Small Conductance Calcium-Activated Potassium (SK) Channels” (Frontiers in Pharmacology, 2018).

One assay concerns the target hSK1 (Homo sapiens, UniProt Q92952). The experiment in a line: Automated patch clamp (QPatch 16), whole cell, stable HEK293 cell line expressing hSK1. As to conditions: HEK stable line, 400 nM free intracellular calcium, mean ± SEM, n = 9. It is filed as cell-based. On the procedure: (§1) Three different stable HEK293 cell lines expressing hSK1, hSK2 or hSK3 (NeuroSearch A/S, Ballerup, Denmark) and a CHO stable cell line expressing hERG (University of Copenhagen, Copenhagen, Denmark) were used for automated patch clamp. These cells were cultivated and prepared as previously described (Skarsfeldt et al., [2016]).
(§2) Automated patch clamp (QPatch 16, Sophion, Denmark) on SK-expressing HEK293 cell lines was conducted as previously described (Simó-Vicens et al., [2017b]). Briefly, SK currents were elicited by voltage-ramps starting at −80 mV and finishing at +80 mV from a holding potential of 0 mV. Extracellular solution contained 0.1 mM CaCl2, 3 mM MgCl2, 154 mM KCl, 10 mM HEPES and 10 mM glucose with pH 7.4. Intracellular solution for SK experiments contained 8.106 mM CaCl2 (final free calcium concentration of 400 nM), 1.167 mM MgCl2, 10 mM EGTA, 154 mM KCl, 10 mM HEPES, 31.25/ 10 mM KOH/EGTA and 15 mM KOH with pH 7.2. Automated patch clamp on hERG-expressing CHO cell line was performed also as previously described (Skarsfeldt et al., [2016]).
Individual IC50 values were calculated for each cell with the built-in nonlinear fit log(inhibitor) vs. normalized response equation:
Where Y is the normalized response, from 100, corresponding to current recorded during saline perfusion, down to 0, corresponding to currents recorded in the presence of bicuculline methiodide 100 μM. […]
A general note: In patch-clamp work, channel activity is measured electrically.

The target of the next assay is T1, hBK (Homo sapiens, UniProt Q12791).
T1 construct: expressed in transfected cells; host or cells: HEK293 (transient, co-transfected with eGFP)
T1 sequence (Q12791 whole entry): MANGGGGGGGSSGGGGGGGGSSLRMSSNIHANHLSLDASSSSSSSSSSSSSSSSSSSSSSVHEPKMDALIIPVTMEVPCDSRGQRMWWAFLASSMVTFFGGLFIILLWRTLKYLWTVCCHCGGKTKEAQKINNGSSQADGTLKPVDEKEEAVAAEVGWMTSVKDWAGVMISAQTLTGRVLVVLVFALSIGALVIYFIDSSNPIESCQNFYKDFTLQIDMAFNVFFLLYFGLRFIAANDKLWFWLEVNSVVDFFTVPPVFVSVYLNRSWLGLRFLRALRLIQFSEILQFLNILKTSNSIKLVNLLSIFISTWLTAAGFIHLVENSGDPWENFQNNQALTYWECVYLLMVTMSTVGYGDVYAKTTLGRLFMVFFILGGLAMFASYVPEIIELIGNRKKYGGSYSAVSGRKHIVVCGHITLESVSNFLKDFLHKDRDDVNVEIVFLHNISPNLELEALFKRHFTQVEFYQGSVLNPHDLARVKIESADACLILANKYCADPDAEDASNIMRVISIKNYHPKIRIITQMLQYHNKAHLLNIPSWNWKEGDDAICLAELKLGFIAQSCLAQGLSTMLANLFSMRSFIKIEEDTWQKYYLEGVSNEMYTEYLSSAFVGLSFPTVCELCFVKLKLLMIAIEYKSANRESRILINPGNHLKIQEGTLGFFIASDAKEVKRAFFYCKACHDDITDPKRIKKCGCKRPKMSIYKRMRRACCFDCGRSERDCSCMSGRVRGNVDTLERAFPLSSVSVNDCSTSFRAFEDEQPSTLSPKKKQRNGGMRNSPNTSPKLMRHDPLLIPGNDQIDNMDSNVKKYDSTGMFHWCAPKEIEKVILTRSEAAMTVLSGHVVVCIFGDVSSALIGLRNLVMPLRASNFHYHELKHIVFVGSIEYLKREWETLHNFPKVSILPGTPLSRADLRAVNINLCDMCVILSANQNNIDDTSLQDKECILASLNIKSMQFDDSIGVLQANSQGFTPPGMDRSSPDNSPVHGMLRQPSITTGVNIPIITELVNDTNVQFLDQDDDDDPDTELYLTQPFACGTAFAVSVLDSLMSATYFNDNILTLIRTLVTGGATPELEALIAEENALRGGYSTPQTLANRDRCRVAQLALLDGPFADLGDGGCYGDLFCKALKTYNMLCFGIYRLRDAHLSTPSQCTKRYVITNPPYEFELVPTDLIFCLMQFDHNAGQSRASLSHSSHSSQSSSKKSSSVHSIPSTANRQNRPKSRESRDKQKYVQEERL
Kind of assay: Manual whole cell patch clamp, HEK293 transiently transfected with hBK. It is filed as cell-based. To be noted: BBP 1 μM, manual patch clamp, 100 nM free intracellular calcium, n = 8. The method, then:
HEK293 cells were transiently co-transfected with the plasmid of interest (hBK, hSK1, hSK2, hSK3 WT, rSK3 H491N, or hIK) and eGFP using standard Lipofectamine™ 2000 (Thermo Fisher Scientific, Waltham, Massachussets, USA) transfection protocols. After transfection, cells were incubated overnight before the experiments.
Manual patch clamp experiments were performed at room temperature in the whole cell configuration with a HEKA EPC9 amplifier and the Patchmaster software (HEKA Elektronik, Ludwigshafen, Germany). All currents were elicited every 2 s using an incremental 200 ms voltage-ramp protocol starting at −80 mV and finishing at +80 mV from a holding potential of 0 mV. […]
To assess the effect of BBP on other calcium-activated potassium channels (hBK, hSK3 WT, rSK3 H491N, and hIK), each individual current was first normalized to its cell size using membrane's capacitance (pA/pF) before statistical analysis. […] Statistical significance between saline and the effect of both BBP and the corresponding reference compound was determined for each channel using one-way ANOVA analysis. […]
After testing BBP on the three SK channel subtypes, we decided to explore whether other calcium-activated potassium channels were affected by the compound. […] Finally, a positive control was used to inhibit the remaining current and quantify the total effect of BBP. […]

The subject of assay [1] is all three SK channel subtypes. The experiment in a line: Automated patch clamp, summary over all three SK channel subtypes. The format is cell-based, human. As to conditions: summary value, read-out: IC50 on all three SK channel subtypes (similar potency). On the procedure: as §1, §2
Where Y is the normalized response, from 100, corresponding to current recorded during saline perfusion, down to 0, corresponding to currents recorded in the presence of bicuculline methiodide 100 μM. X is the log of the BBP concentration. A standard Hill Slope of −1 was considered for this purpose. […]

Each structure is given as a SMILES string. Values joined by “and” are separate entries in the source; they are usually repeats but may differ in a detail not shown here. Equal values may be shown once.

What is called IC50 is the concentration needed to halve the response being measured. As for `c1cc(-c2nc3ccccc3[nH]2)nc(-c2nc3ccccc3[nH]2)c1` [BBP, 2,6-Bis(2-benzimidazolyl)pyridine], the 50% inhibitory concentration (IC50) is 700 ± 200 nM on hSK1; 400 nM and ~400 nM in assay [1]. For the same molecule, at hBK, the “Reduction of hBK current” value was 19 ± 6%.
